Results as given in patent US20010031760A1, “Method of treating a patient having precancerous lesions with quinazoline derivatives” (priority 1995, published 2001).
Counter-ions that a name gives are not always drawn.

Row | Structure (SMILES) | melting point
1 | COc1cc2nc(N3CCN(C(=O)C4CCCC4)CC3)nc(NN)c2cc1OC.Cl | 282 to 284 °C
2 | COc1cc2nc(N3CCN(C(=O)c4ocnc4C)CC3)nc(N)c2cc1OC.Cl | 283.5 to 288 °C (dec.)
3 | COc1cc2nc(N3CCN(C(=O)c4nccs4)CC3)nc(N)c2cc1OC.Cl | 273 to 276 °C (dec.)
4 | COc1cc2nc(N3CCN(C(=O)c4cncs4)CC3)nc(N)c2cc1OC.Cl | 280 to 281 °C (dec.)
5 | COc1cc2nc(N3CCN(C(=O)c4ccon4)CC3)nc(N)c2cc1OC.Cl | 268 to 273 °C (dec.)
6 | COc1cc2nc(N3CCN(C(=O)c4csnn4)CC3)nc(N)c2cc1OC.Cl | 270 °C (dec.)
7 | COc1cc2nc(N3CCN(C(=O)c4cc(C)on4)CC3)nc(N)c2cc1OC.Cl | 271 to 273 °C (dec.)
8 | COc1cc2nc(N3CCN(C(=O)c4cnns4)CC3)nc(N)c2cc1OC.Cl | 295 to 297 °C
9 | COc1cc2nc(N3CCN(C(=O)c4cnoc4)CC3)nc(N)c2cc1OC.Cl | 225 to 260 °C (dec.)
10 | COc1cc2nc(N3CCN(C(=O)C4CCCC4)CC3)nc(N)c2cc1OC (as salt: hydrochloride) [Example 127, 4-Amino-2-[4-(cyclopentylcarbonyl)-1-piperazinyl]-6,7-dimethoxyquinazoline] | 279 to 280 °C (dec.)
11 | COc1cc2nc(N3CCN(C(=O)c4cc(C)no4)CC3)nc(N)c2cc1OC.Cl | 263 to 264 °C (dec.)
12 | COc1cc2nc(N3CCN(C(=O)c4cocn4)CC3)nc(N)c2cc1OC.Cl | 291 to 294 °C (dec.)
13 | COc1cc2nc(N3CCN(C(=O)c4conc4C)CC3)nc(N)c2cc1OC.Cl | 300 to 301 °C (dec.)
14 | COc1cc2nc(N3CCN(C(=O)C4CC=CCC4)CC3)nc(N)c2cc1OC (stereo not drawn) [Example 132, 4-Amino-2-[4-(3-cyclohexenylcarbonyl)-1-piperazinyl]-6,7-dimethoxyquinazoline] | 234 to 236 °C
15 | COc1cc2nc(N3CCN(C(=O)c4cnsc4)CC3)nc(N)c2cc1OC.Cl | 286 to 287 °C (dec.)
16 | COc1cc2nc(N3CCN(C(=O)c4cscn4)CC3)nc(N)c2cc1OC.Cl | 274 to 277 °C (dec.)
17 | COc1cc2nc(N3CCN(C(=O)c4coc(C)n4)CC3)nc(N)c2cc1OC.Cl | 278 to 280 °C (dec.)
18 | COc1cc2nc(N3CCN(C(=O)c4csc(C)n4)CC3)nc(N)c2cc1OC.Cl | 260 to 263 °C (dec.)
